Measurements taken from patent publication US5130414A, “Isolation and structural elucidation of the cyclic peptide hymenistatin 1” (Arizona Board of Regents, a body corporate of Arizona State …, priority 1989, dated 1992).

Tested on: murine P388 lymphocytic leukemia (PS system)
Experiment: PS system cell growth inhibition (P388 murine leukemia cell line, N.C.I. Protocol)
Format: cell-based

With “cyclo [Hymenistatin 1, cyclo [Pro^a -Pro^b -Tyr-Val-Pro^c -Leu-Ili-Ile]]” the “PS ED50” value was 3.5 µg/mL.
